One assay deals with T1, human recombinant GR (Homo sapiens, UniProt P04150).
T1 construct: purchased PanVera P2812
T1 sequence (P04150 1-777): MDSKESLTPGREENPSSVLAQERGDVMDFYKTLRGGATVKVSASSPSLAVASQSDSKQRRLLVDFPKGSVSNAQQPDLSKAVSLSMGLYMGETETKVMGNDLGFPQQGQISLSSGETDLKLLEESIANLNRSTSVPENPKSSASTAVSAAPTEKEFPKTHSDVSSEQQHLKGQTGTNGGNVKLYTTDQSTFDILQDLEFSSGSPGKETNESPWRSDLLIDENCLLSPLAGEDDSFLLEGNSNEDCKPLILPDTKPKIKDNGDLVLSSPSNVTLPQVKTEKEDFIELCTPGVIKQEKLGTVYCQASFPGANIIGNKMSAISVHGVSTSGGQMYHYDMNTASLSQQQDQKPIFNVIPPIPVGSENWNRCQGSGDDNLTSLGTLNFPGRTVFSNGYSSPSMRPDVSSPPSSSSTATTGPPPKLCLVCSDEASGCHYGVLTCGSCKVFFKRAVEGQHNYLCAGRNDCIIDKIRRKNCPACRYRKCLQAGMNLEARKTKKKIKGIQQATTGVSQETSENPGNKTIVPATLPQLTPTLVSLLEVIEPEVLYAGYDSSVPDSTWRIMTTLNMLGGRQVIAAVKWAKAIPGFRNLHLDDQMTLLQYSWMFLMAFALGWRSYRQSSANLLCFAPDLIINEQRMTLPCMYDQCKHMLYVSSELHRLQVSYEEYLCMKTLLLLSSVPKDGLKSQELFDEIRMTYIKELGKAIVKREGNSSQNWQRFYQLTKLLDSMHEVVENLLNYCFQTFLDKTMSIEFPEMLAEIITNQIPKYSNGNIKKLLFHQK
In words: Human glucocorticoid receptor (GR) fluorescence polarisation (FP) binding assay. The procedure, abridged:
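Competition fluorescence polarisation: 0.5 nM GS Red labelled glucocorticoid and 1 nM recombinant human GR with 8-point half-log compound series, 1% DMSO, 4 h room temperature, potassium phosphate pH 7.4 buffer with molybdate, EDTA, DTT. Affinity derived from the drop in polarisation, normalised to blank wells.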

The subject of assay [1] is induction of TAT by dexamethasone in HepG2 cells. In words: HepG2 tyrosine aminotransferase (TAT) assay. Type of assay: cell-based, human.
The mark [2] stands for this setting: human recombinant GR, fluorescence polarisation binding assay, read-out: GR binding.
Setting [3] is: HepG2 cells, challenge of 100 nM dexamethasone, Ki from IC50 by Cheng and Prusoff equation.

Like-named read-outs stand apart in the source and are kept apart here.

Regarding `CCCn1cc(S(=O)(=O)N2CCC3=Cc4c(cnn4-c4ccc(F)cc4)C[C@]3(C(=O)c3nccs3)C2)cn1` [Example 12Y, (R)-(1-(4-fluorophenyl)-6-((1-propyl-1H-pyrazol-4-yl)sulfonyl)-4,4a,5,6,7,8-hexahydro-1H-pyrazolo[3,4-g]isoquinolin-4a-yl)(thiazol-2-yl)methanone], the Ki at human recombinant GR (setting [2]) was below 0.5 nM; in assay [1] (setting [3]) it was below 20 nM.
The corresponding values for `O=C(c1ccccn1)[C@]12Cc3cnn(-c4ccc(F)cc4)c3C=C1CCN(S(=O)(=O)C1CCOCC1)C2` [Example 2S, (R)-(1-(4-fluorophenyl)-6-((tetrahydro-2H-pyran-4-yl)sulfonyl)-4,4a,5,6,7,8-hexahydro-1H-pyrazolo[3,4-g]isoquinolin-4a-yl)(pyridin-2-yl)methanone] are above 1 nM and at least 100 nM.
The like results for `Cc1ccnc(C(=O)[C@]23Cc4cnn(-c5ccc(F)cc5)c4C=C2CCN(S(=O)(=O)c2cnn(C)c2)C3)c1` [Example 11T, (R)-(1-(4-fluorophenyl)-6-((1-methyl-1H-pyrazol-4-yl)sulfonyl)-4,4a,5,6,7,8-hexahydro-1H-pyrazolo[3,4-g]isoquinolin-4a-yl)(4-methylpyridin-2-yl)methanone] were, in that order, below 0.5 nM and below 20 nM.
With `O=C(c1cccnc1)[C@]12Cc3cnn(-c4ccc(F)cc4)c3C=C1CCN(S(=O)(=O)c1ccc(C(F)(F)F)cc1)C2` [Example 1B, (R)-(1-(4-fluorophenyl)-6-((4-(trifluoromethyl)phenyl)sulfonyl)-4,4a,5,6,7,8-hexahydro-1H-pyrazolo[3,4-g]isoquinolin-4a-yl)(pyridin-3-yl)methanone], the Ki on human recombinant GR is 0.5 to 1 nM; in assay [1], above 100 nM.
`O=C(c1cc(C(F)(F)F)ccn1)[C@]12Cc3cnn(-c4ccc(F)cc4)c3C=C1CCN(S(=O)(=O)c1cc(F)c(F)c(F)c1)C2` [Example 11BQ, (R)-(1-(4-fluorophenyl)-6-((3,4,5-trifluorophenyl)sulfonyl)-4,4a,5,6,7,8-hexahydro-1H-pyrazolo[3,4-g]isoquinolin-4a-yl)(4-(trifluoromethyl)pyridin-2-yl)methanone]: the Ki at human recombinant GR (setting [2]) is above 1 nM; in assay [1] (setting [3]), below 20 nM.
The corresponding values for `O=C(c1nccs1)[C@]12Cc3cnn(-c4ccc(F)cc4)c3C=C1CCN(S(=O)(=O)c1ccc(C(F)(F)F)c(F)c1)C2` [Example 12K, (R)-(6-((3-fluoro-4-(trifluoromethyl)phenyl)sulfonyl)-1-(4-fluorophenyl)-4,4a,5,6,7,8-hexahydro-1H-pyrazolo[3,4-g]isoquinolin-4a-yl)(thiazol-2-yl)methanone] are below 0.5 nM and 20 to 100 nM.
The corresponding values for `Cn1ncc(S(=O)(=O)N2CCC3=Cc4c(cnn4-c4ccc(F)cc4)C[C@]3(C(=O)c3ccccn3)C2)n1` (single isomer, unassigned) [Example 11DB] are below 0.5 nM and below 20 nM.
The corresponding values for `O=C(c1nccs1)[C@]12Cc3cnn(-c4ccc(F)cc4)c3C=C1CCN(S(=O)(=O)c1ccc(F)cc1)C2` [Example 5, (R)-(1-(4-fluorophenyl)-6-((4-fluorophenyl)sulfonyl)-4,4a,5,6,7,8-hexahydro-1H-pyrazolo[3,4-g]isoquinolin-4a-yl)(thiazol-2-yl)methanone] are below 0.5 nM and 20 to 100 nM.
As to `Cc1ccnc(C(=O)[C@]23Cc4cnn(-c5ccc(F)cc5)c4C=C2CCN(S(=O)(=O)c2c(C)noc2C)C3)c1` [Example 11AX, (R)-(6-((3,5-dimethylisoxazol-4-yl)sulfonyl)-1-(4-fluorophenyl)-4,4a,5,6,7,8-hexahydro-1H-pyrazolo[3,4-g]isoquinolin-4a-yl)(4-methylpyridin-2-yl)methanone], the figures for the Ki (at human recombinant GR (setting [2]); in assay [1] (setting [3])) were below 0.5 nM and 20 to 100 nM, respectively.
The like results for `COc1ccc(C(=O)[C@]23Cc4cnn(-c5ccc(F)cc5)c4C=C2CCN(S(=O)(=O)c2ccc(C(F)(F)F)cc2)C3)nc1` [Example 5H, (R)-(1-(4-fluorophenyl)-6-((4-(trifluoromethyl)phenyl)sulfonyl)-4,4a,5,6,7,8-hexahydro-1H-pyrazolo[3,4-g]isoquinolin-4a-yl)(5-methoxypyridin-2-yl)methanone] were, in that order, 0.5 to 1 nM and below 20 nM.
The like results for `Cc1cccc(S(=O)(=O)N2CCC3=Cc4c(cnn4-c4ccc(F)cc4)C[C@]3(C(=O)c3nccs3)C2)c1` [Example 12A, (R)-(1-(4-fluorophenyl)-6-(m-tolylsulfonyl)-4,4a,5,6,7,8-hexahydro-1H-pyrazolo[3,4-g]isoquinolin-4a-yl)(thiazol-2-yl)methanone] were, in that order, below 0.5 nM and below 20 nM.
The corresponding values for `Cc1ccnc(C(=O)[C@]23Cc4cnn(-c5ccc(F)cc5)c4C=C2CCN(S(=O)(=O)c2ccnn2C)C3)c1` [Example 11AJ, (R)-(1-(4-fluorophenyl)-6-((1-methyl-1H-pyrazol-5-yl)sulfonyl)-4,4a,5,6,7,8-hexahydro-1H-pyrazolo[3,4-g]isoquinolin-4a-yl)(4-methylpyridin-2-yl)methanone] are below 0.5 nM and below 20 nM.
As for `O=C(c1ccccn1)[C@]12Cc3cnn(-c4ccccc4)c3C=C1CCN(S(=O)(=O)c1cccc(C(F)(F)F)c1)C2` [Example 11AZ, (R)-(1-phenyl-6-((3-(trifluoromethyl)phenyl)sulfonyl)-4,4a,5,6,7,8-hexahydro-1H-pyrazolo[3,4-g]isoquinolin-4a-yl)(pyridin-2-yl)methanone], the Ki is below 0.5 nM at human recombinant GR (setting [2]) and 20 to 100 nM in assay [1] (setting [3]).
Regarding `O=C(c1ccccn1)[C@]12Cc3cnn(-c4ccc(F)cc4)c3C=C1CCN(S(=O)(=O)c1cccc(Cl)c1)C2` [Example 2F, (R)-(6-((3-chlorophenyl)sulfonyl)-1-(4-fluorophenyl)-4,4a,5,6,7,8-hexahydro-1H-pyrazolo[3,4-g]isoquinolin-4a-yl)(pyridin-2-yl)methanone], the Ki at human recombinant GR is below 0.5 nM; in assay [1], below 20 nM.
For `Cc1cc(C)cc(S(=O)(=O)N2CCC3=Cc4c(cnn4-c4ccc(F)cc4)C[C@]3(C(=O)c3ccccn3)C2)c1` [Example 11N, (R)-(6-((3,5-dimethylphenyl)sulfonyl)-1-(4-fluorophenyl)-4,4a,5,6,7,8-hexahydro-1H-pyrazolo[3,4-g]isoquinolin-4a-yl)(pyridin-2-yl)methanone], the figures for the Ki (on human recombinant GR (setting [2]); in assay [1] (setting [3])) were below 0.5 nM and below 20 nM, respectively.
The like results for `Cn1ccc(S(=O)(=O)N2CCC3=Cc4c(cnn4-c4ccc(Cl)cc4)C[C@]3(C(=O)c3cc(C(F)(F)F)ccn3)C2)n1` [Example 11BR, (R)-(1-(4-chlorophenyl)-6-((1-methyl-1H-pyrazol-3-yl)sulfonyl)-4,4a,5,6,7,8-hexahydro-1H-pyrazolo[3,4-g]isoquinolin-4a-yl)(4-(trifluoromethyl)pyridin-2-yl)methanone] were, in that order, 0.5 to 1 nM and below 20 nM.

Values taken from patent publication US12226412B2, “Heteroaryl-ketone fused azadecalin glucocorticoid receptor modulators” (Corcept Therapeutics, Inc., priority 2012, dated 2025).
